“And” between values parts separate entries of the source, which are not always exact repeats. Equal entries are not always repeated. Where two headings read alike, the source gives them in different places.
Columns and labels:
Assay type in all cases: in vivo, pig
[1] = test system: intrapulmonary mRNA of IL-1β, IL-6, TNF-α, COX-2, iNOS, amphiregulin, tenascin-c; assay: Intrapulmonary mRNA quantification (real-time PCR, normalized to PPIA) in lung tissue of LPS-septic pigs
Experimental: (§1) Following instrumentation baseline parameters were assessed at healthy state. FIG. 1 summarizes the experimental protocol: systemic inflammation was induced by continuous LPS infusion (Escherichia coli serotype O111:B4, Sigma-Aldrich, Switzerland) for one hour at 100 μg kg^−1 h^−1, followed by 10 μg kg^−1h^−1 for the entire experiment. Initial high-dose infusion was combined with a non-protective ventilation setting (Vt 25 mL kg^−1, zero PEEP, FiO2 1.0) to add a VILI component. Afterwards the ventilation mode was switched to a more lung protective setting: Vt of 8 mL kg^−1, PEEP 5 cm H2O, FiO2 of 0.4-0.5, and a variable respiratory rate to maintain a pH>7.2. The animals were monitored over six hours after sepsis induction. During the induction phase a non-participant randomized the animals into two groups and prepared the peptide solution as previously described (Hartmann E K et al, Acta anaesthesiologica Scandinavica 2013, 57(3):334-341) for blinded endotracheal inhalation.
(§2) Group (1) animals, to which 1 mg kg^−1 of a compound of formula I of the amino acid sequence SEQ ID NO:5 was administered at zero and three hours;
To determine intrapulmonary inflammation mRNA levels of pro-inflammatory cytokines interleukin-1β (IL-1β), interleukin-6 (IL-6), TNF-α, and enzymes prostaglandin G/H synthase-2 (COX-2) and inducible nitric oxide synthase (iNOS) were quantified. Amphiregulin and tenascin-c expression levels were examined as surrogates of mechanical stress and remodeling. Four representative samples from the left lung (upper/lower lobe, each dependent/non-dependent) were collected, snap frozen in liquid nitrogen and stored at −80° C. RNA extraction and quantification procedure by real-time polymerase chain reaction (Lightcycler 480 PCR System, Roche Applied Science, Germany) was conducted as previously described in detail.[17-19] mRNA expression data were normalized against peptidylprolyl isomerase A (PPIA) as control gene.
(§3) Data are expressed as median and interquartile range (IQR) respectively box-plots. Intergroup comparisons were tested with the Mann-Whitney-U-Test. If multiple testing was performed, P values were adjusted by the Bonferroni correction. Intragroup time courses of repetitively measured parameters were analyzed by Friedman ANOVA on ranks and post-hoc Student-Newman-Keuls-Test. P values below 0.05 were regarded as significant. Physiological data (ventilator and hemodynamic data) as set out in Table 1 were analyzed in explorative manner only. The statistical software SigmaPlot 11.0 (Systat Inc., USA) was used.

[2] = test system: LPS-induced lung injury; assay: Post-mortem macroscopic and histopathological lung injury scoring and lung wet to dry ratio in LPS-septic pigs; conditions: for hemorrhage, histopathological score / alveolar edema, histopathological score / epithelial destruction, histopathological score / inflammatory infiltration, histopathological score / interstitial edema, histopathological score / microatelectasis, histopathological score / overdistension, histopathological score: post-mortem at 6 h, median (IQR); for hemorrhage, histopathological score: 0 to 5 points, CTRL higher, P<0.05 vs. Group (1); for alveolar edema, histopathological score / epithelial destruction, histopathological score / inflammatory infiltration, histopathological score / interstitial edema, histopathological score / microatelectasis, histopathological score / overdistension, histopathological score: severity 0 to 5 points
Experimental: as §1, §2
The lungs were removed en-bloc after thoracotomy. A macroscopic lung injury score was assessed as previously described in detail (Lim C M et al, Lung 2003, 181(1):23-34). Four ventral and dorsal segments (each upper/lower right, upper/lower left) of the lung surface were examined for hemorrhage and congestion (2 points>50%, 1 point for<50%, 0 points for no or minimal changes). The right lung was fixed in 10% buffered formalin. Representative tissue samples were paraffin embedded and cut for hematoxylin and eosin staining A blinded investigator under supervision of a senior pathologist performed the histopathological assessment. In different lung regions (non-dependent periphery and bronchial, dependent periphery and bronchial) morphological changes were rated for seven criteria (alveolar edema, interstitial edema, hemorrhage, inflammatory infiltration, epithelial damage, microatelectasis and overdistension). The severity of each parameter ranged from 0 (no occurrence) to 5 points (complete field). For every lung region we used the mean value of four non-overlapping microscopy fields. The sum of the regional scores in all lung regions adds to a maximum injury score of 140 points (7 parameters×5 maximum points per parameter from 4 lung regions). Additionally the regional distribution of each parameter was assessed in the dependent versus non-dependent lung regions. Similar scoring procedures were described previously (Spieth P M et al, Intensive Care Med 2007, 33(2):308-314; Wang H M et al, Eur Surg Res 2010, 45(3-4):121-133).The left lung was weighted immediately after removal and dried afterwards at 60° C. for 72 hours to determine the dry weight and wet to dry ratio (W/D).
as §3

[3] = test system: plasma IL-6 and TNF-α; assay: Plasma levels of IL-6 and TNF-α by ELISA in LPS-septic pigs; conditions: vs CTRL; repetitive inhalation; compared with the effect on pulmonary expression
Experimental: as §1, with “During the induction phase a non-participant randomized the animals into two groups and prepared the peptide solution as previously described (Hartmann E K et al, Acta anaesthesiologica Scandinavica 2013, 57(3):334-341) for blinded endotracheal inhalation.” left out
Blood gas values were obtained using a Rapidlab 248 device (Bayer Healthcare, Germany) Hematological parameters were sampled during baseline, sepsis induction and after three and six hours. Lactate plasma levels, leucocyte and platelet counts were analyzed by the Institute of Laboratory Medicine, Medical Center of the Johannes Gutenberg-University. The plasma levels of IL-6 and TNF-α were determined by quantifying enzyme linked immunosorbent assays according to the manufacturer's instructions (Porcine IL-6 Quantikine ELISA, Porcine TNF-α Quantikine ELISA, R&D Systems, Germany).

[4] = test system: porcine model of lipopolysaccharide (LPS)-induced sepsis; conditions: for CO (cardiac output) / CVP (central venous pressure) / EVLW (extravascular lung water content) / MAP (mean arterial pressure) / MPAP (mean pulmonary arterial pressure) / NA (noradrenaline dosage required for hemodynamic stability) / PaCO2 (arterial partial pressure of carbon dioxide) / Pendinsp (end-inspiratory pressure) / RR (respiratory rate): median
Experimental: Following animal care committee approval (Landesuntersuchungsamt Rheinland-Pfalz, Koblenz, Germany; approval number 23 177-07/G12-1-058) 18 juvenile pigs (weight 25-27 kg) were examined in a randomized, investigator-blinded setting.
After sedation with intramuscular injection of ketamine (8 mg kg^−1) and midazolam (0.2 mg kg^−1) and preparation of vascular access, anesthesia was induced and maintained by intravenous propofol and fentanyl administration (8-12 mg kg^−1 h^−1/0.1-0.2 mg h^−1). A single dose of atracurium (0.5 mg kg^−1) was applied to facilitate orotracheal intubation. Ventilation (Respirator: AVEA®, CareFusion, USA) was started in pressure-controlled mode with a tidal volume of (Vt) of 8 mL kg^−1, positive end-expiratory pressure (PEEP) of 5 cmH2O, FiO2 of 0.3-0.4 and a variable respiratory rate to maintain normocapnia. A balanced saline solution (Sterofundin iso, B. Braun, Germany) was continuously infused at a rate of 10 mL kg^−1h^−1. Vascular catheters were placed ultrasound-guided in Seldinger's technique and under sterile conditions: an arterial line, a pulse contour cardiac output catheter (PiCCO, Pulsion Medical Systems, Germany) and central venous line were inserted via femoral vein access. A 7.5-French introducer for a pulmonary artery catheter was placed via the right internal jugular vein. Ventilatory and extended hemodynamic parameters were recorded continuously (Datex S/5, GE Healthcare, Germany). Body temperature was measured by a rectal probe and normothermia was maintained by body surface warming
as §1, §2
To maintain hemodynamic stability (mean arterial pressure >60 mmHg) additional fluid boli were administered (150 ml of balanced saline or hydroxyethyl starch once every hour). Persisting instability was treated by continuous central venous noradrenaline infusion. At the end of the experiments the animals were killed in deep general anesthesia by intravenous injection of propofol (200 mg) and potassium chloride (40 mval).
as §3

[5] = vs CTRL, lung tissue at 6 h, 1 mg kg^−1 inhaled at zero and three hours
[6] = 3 h, 1 mg kg^−1 inhaled at zero and three hours
[7] = 6 h, 1 mg kg^−1 inhaled at zero and three hours
[8] = Baseline, before LPS and inhalation
[9] = Sepsis/VILI induction, before first inhalation

Substance: Cyclo(4-aminobutanoic acid-GQRETPEGAEAKPWYD) (XGQRETPEGAEAKPWYD; cyclized via N-terminal 4-aminobutanoic acid to Asp side chain; cyclized compound for use in inflammation) [SEQ ID NO:5, amide bond between amino group of N-terminal 4-aminobutanoic acid and β-carboxyl side chain of C-terminal aspartic acid]
- intrapulmonary inflammatory response ([1]; at 6 hours post insult, peptide inhalation, LPS-induced lung injury in pigs): significantly reduced
- intrapulmonary overall mRNA expression of COX-2 ([1]; vs CTRL, p=0.003, lung tissue at 6 h, 1 mg kg^−1 inhaled at zero and three hours): significantly lower
- intrapulmonary tenascin-c expression ([1]; vs CTRL, p=0.015, lung tissue at 6 h, 1 mg kg^−1 inhaled at zero and three hours): decreased
- intrapulmonary overall mRNA expression of TNF-α ([1]; vs CTRL, p=0.041, lung tissue at 6 h, 1 mg kg^−1 inhaled at zero and three hours): significantly lower
- intrapulmonary overall mRNA expression of IL-6 ([1]; vs CTRL, p=0.043, lung tissue at 6 h, 1 mg kg^−1 inhaled at zero and three hours): significantly lower
- intrapulmonary mRNA expression of IL-1β [1, 5]: less differences
- intrapulmonary mRNA expression of iNOS [1, 5]: less differences
- hemorrhage, histopathological score ([2]; dependent lung regions): 0.1 (0.8)
- alveolar edema, histopathological score ([2]; dependent lung regions): 0 (0.1)
- epithelial destruction, histopathological score ([2]; dependent lung regions): 0 (0)
- inflammatory infiltration, histopathological score ([2]; dependent lung regions): 3.4 (1.6)
- interstitial edema, histopathological score ([2]; dependent lung regions): 1.3 (0;8)
- microatelectasis, histopathological score ([2]; dependent lung regions): 3.8 (2.4)
- overdistension, histopathological score ([2]; dependent lung regions): 3.5 (1.7)
- pulmonary wet to dry ratio (W/D) ([2]; left lung, vs CTRL Group (2), trend): higher
- hemorrhage, histopathological score ([2]; non-dependent lung regions): 0 (0)
- alveolar edema, histopathological score ([2]; non-dependent lung regions): 0 (0)
- epithelial destruction, histopathological score ([2]; non-dependent lung regions): 0 (0)
- inflammatory infiltration, histopathological score ([2]; non-dependent lung regions): 3.8 (1.4)
- interstitial edema, histopathological score ([2]; non-dependent lung regions): 0.9 (1.1)
- microatelectasis, histopathological score ([2]; non-dependent lung regions): 3.8 (1.4)
- overdistension, histopathological score ([2]; non-dependent lung regions): 4.1 (0.9)
- post-mortem macroscopic and histologic lung injury ([2]; vs CTRL Group (2), sustained lung injury in both groups): trend towards a less pronounced damage
- plasma level of IL-6 [3]: less affected
- plasma level of TNF-α [3]: less affected
- CO (cardiac output) [4, 6]: 3.2 L/min
- CVP (central venous pressure) [4, 6]: 11 mmHg
- EVLW (extravascular lung water content) [4, 6]: 12 mL/kg
- MAP (mean arterial pressure) [4, 6]: 61 mmHg
- MPAP (mean pulmonary arterial pressure) [4, 6]: 33 mmHg
- NA (noradrenaline dosage required for hemodynamic stability) [4, 6]: 0.2 µg/kg/min
- PaCO2 (arterial partial pressure of carbon dioxide) [4, 6]: 43 mmHg
- Pendinsp (end-inspiratory pressure) [4, 6]: 22 cmH2O
- RR (respiratory rate) [4, 6]: 34 min⁻¹
- CO (cardiac output) [4, 7]: 3.7 L/min
- CVP (central venous pressure) [4, 7]: 13 mmHg
- EVLW (extravascular lung water content) [4, 7]: 13 mL/kg
- MAP (mean arterial pressure) [4, 7]: 66 mmHg
- MPAP (mean pulmonary arterial pressure) [4, 7]: 30 mmHg
- NA (noradrenaline dosage required for hemodynamic stability) [4, 7]: 0.8 µg/kg/min
- PaCO2 (arterial partial pressure of carbon dioxide) [4, 7]: 43 mmHg
- Pendinsp (end-inspiratory pressure) [4, 7]: 19 cmH2O
- RR (respiratory rate) [4, 7]: 32 min⁻¹
- CO (cardiac output) [4, 8]: 4.5 L/min
- CVP (central venous pressure) [4, 8]: 11 mmHg
- EVLW (extravascular lung water content) [4, 8]: 10 mL/kg
- MAP (mean arterial pressure) [4, 8]: 90 mmHg
- MPAP (mean pulmonary arterial pressure) [4, 8]: 22 mmHg
- NA (noradrenaline dosage required for hemodynamic stability) [4, 8]: 0 µg/kg/min
- PaCO2 (arterial partial pressure of carbon dioxide) [4, 8]: 45 mmHg
- RR (respiratory rate) [4, 8]: 29 min⁻¹
- Pendinsp (end-inspiratory pressure) ([4]; Baseline, healthy state before LPS and inhalation): 14 cmH2O
- CO (cardiac output) [4, 9]: 4.5 L/min
- CVP (central venous pressure) [4, 9]: 10 mmHg
- EVLW (extravascular lung water content) [4, 9]: 11 mL/kg
- MAP (mean arterial pressure) [4, 9]: 100 mmHg
- MPAP (mean pulmonary arterial pressure) [4, 9]: 23 mmHg
- NA (noradrenaline dosage required for hemodynamic stability) [4, 9]: 0 µg/kg/min
- PaCO2 (arterial partial pressure of carbon dioxide) [4, 9]: 35 mmHg
- Pendinsp (end-inspiratory pressure) [4, 9]: 22 cmH2O
- RR (respiratory rate) [4, 9]: 9 min⁻¹
- Raw (airway resistance) ([4]; pig, in vivo): 10 cmH2O L^−1s^−1 and 12 cmH2O L^−1s^−1 and 11 cmH2O L^−1s^−1

Source: US20170014472A1, “ATTENUATION OF INTRAPULMONARY INFLAMMATION” (APEPTICO FORSCHUNG UND E[…], priority 2014, published 2017)
